Key:
Assay in all cases: relative viability (nuclei count vs DMSO), 5 days (fraction); higher = more cells survive
Adavosertib + Tozasertib = compound: C=CCn1c(=O)c2cnc(Nc3ccc(N4CCN(C)CC4)cc3)nc2n1-c1cccc(C(C)(C)O)n1 [Adavosertib] + Cc1cc(Nc2cc(N3CCN(C)CC3)nc(Sc3ccc(NC(=O)C4CC4)cc3)n2)n[nH]1 [Tozasertib] (partner 0.1 µM)
Summary of the method: (§1)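 Lung cancer cell lines, seeded in 1536-well plates, were treated the following day by pin tool with a single drug or with five library-drug doses (not always all listed) in √10 steps on top of a fixed anchor-drug dose. Cells were fixed and nuclei stained in one step after 5 days, and nuclei were counted. Relative viability is the nuclei count for treated wells divided by that for vehicle wells, reported as medians of duplicate plates.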

Nelarabine + Navitoclax = compound: COc1nc(N)nc2c1ncn2[C@@H]1O[C@H](CO)[C@@H](O)[C@@H]1O [Nelarabine] + CC1(C)CCC(c2ccc(Cl)cc2)=C(CN2CCN(c3ccc(C(=O)NS(=O)(=O)c4ccc(N[C@H](CCN5CCOCC5)CSc5ccccc5)c(S(=O)(=O)C(F)(F)F)c4)cc3)CC2)C1 [Navitoclax] (partner 0.5 µM)
Summary of the method: as §1

Nelarabine + Crizotinib = compound: COc1nc(N)nc2c1ncn2[C@@H]1O[C@H](CO)[C@@H](O)[C@@H]1O [Nelarabine] + C[C@@H](Oc1cc(-c2cnn(C3CCNCC3)c2)cnc1N)c1c(Cl)ccc(F)c1Cl [Crizotinib] (partner 1 µM)
Summary of the method: as §1

Nelarabine + Pemetrexed = compound: COc1nc(N)nc2c1ncn2[C@@H]1O[C@H](CO)[C@@H](O)[C@@H]1O [Nelarabine] + Nc1nc2[nH]cc(CCc3ccc(C(=O)N[C@@H](CCC(=O)O)C(=O)O)cc3)c2c(=O)[nH]1 [Pemetrexed] (partner 0.2 µM)
Summary of the method: as §1

Cell Line | relative viability (Adavosertib + Tozasertib; first compound 0.01 µM) | relative viability (Adavosertib + Tozasertib; first compound 0.03162 µM) | relative viability (Adavosertib + Tozasertib; first compound 0.1 µM) | relative viability (Adavosertib + Tozasertib; first compound 0.3162 µM) | relative viability (Nelarabine + Navitoclax; first compound 0.01 µM) | relative viability (Nelarabine + Navitoclax; first compound 0.03162 µM) | relative viability (Nelarabine + Navitoclax; first compound 0.1 µM) | relative viability (Nelarabine + Navitoclax; first compound 0.3162 µM) | relative viability (Nelarabine + Navitoclax; first compound 1 µM) | relative viability (Nelarabine + Crizotinib; first compound 0.01 µM) | relative viability (Nelarabine + Crizotinib; first compound 0.03162 µM) | relative viability (Nelarabine + Crizotinib; first compound 0.1 µM) | relative viability (Nelarabine + Crizotinib; first compound 0.3162 µM) | relative viability (Nelarabine + Crizotinib; first compound 1 µM) | relative viability (Nelarabine + Pemetrexed; first compound 0.01 µM) | relative viability (Nelarabine + Pemetrexed; first compound 0.03162 µM) | relative viability (Nelarabine + Pemetrexed; first compound 0.1 µM) | relative viability (Nelarabine + Pemetrexed; first compound 0.3162 µM) | relative viability (Nelarabine + Pemetrexed; first compound 1 µM)
LU99A | 0.284 | 0.273 | 0.263 | 0.273 | 0.918 | 0.821 | 0.845 | 0.765 | 0.758 | 0.557 | 0.534 | 0.582 | 0.627 | 0.622 | 0.197 | 0.154 | 0.173 | 0.192 | 0.223
EPLC-272H | 0.281 | 0.315 | 0.197 | 0.277 | 1.33 | 1.35 | 1.43 | 0.954 | 1.08 | 1.01 | 0.928 | 1 | 0.946 | 0.861 | 0.3 | 0.288 | 0.308 | 0.289 | 0.378
NCI-H2087 | 0.303 | 0.258 | 0.273 | 0.234 | 1.02 | 0.944 | 0.971 | 0.9 | 0.979 | 1.22 | 0.965 | 0.88 | 0.819 | 0.84 | 0.782 | 0.67 | 0.723 | 0.7 | 0.717
HCC-827 | 0.402 | 0.415 | 0.46 | 0.437 | 1.02 | 0.886 | 0.91 | 0.797 | 0.705 | 0.902 | 0.811 | 0.748 | 0.682 | 0.607 | 0.231 | 0.235 | 0.27 | 0.287 | 0.231

From the supplement of paper PMC10307832
